Data published in patent US8445500B2, “Pesticidal compositions” (Dow AgroSciences, LLC., priority 2007, dated 2013).

Assays:
Format in all cases: in vivo
[1] = tested on: Root-Knot Nematode Meloidogyne incognita; assay: Insecticidal assay 5, root-knot nematode, 96-well plate with foxtail millet; details: M. incognita eggs; 5 micrograms of compound per well; soil/polymer media with foxtail millet seeds; assessed after 7 days at 27° C.
Excerpt: 5. Insecticidal Assay for Root-Knot Nematode Meloidogyne incognita:
Objective: To evaluate the insecticidal activity of compounds against M. incognita through contact and ingestion.
(§1) Test unit preparation: Empty, 96-well microtiter plates are loaded onto a robotic dispensing system prior to application.
Formulation and application: A robotic system dispenses 25 microliters of ethanol and 5 micrograms of compound, diluted in dimethyl sulfoxide, into each well of a 96-well flat-bottomed, microtiter plate. There are 3 replicates per treatment. The plates are held 24 hours to allow proper drying prior to further preparation and infestation.
Additional test unit preparation and infestation: After drying, 16 milligrams of media consisting of 2 parts fine soil and 1 part absorbent polymer is added to each well of the treated 96-well plates. Once the media is in place, a 200 microliter aqueous suspension of rootknot nematode eggs is added to each well forming a gelatinous substrate. Into each of these wells are distributed 10 foxtail millet Seteria italica seeds. Following this “planting” an identical plate is sealed to the top of the treated plate to allow space for the millet to grow.
Holding and assessment: Once the lids are in place, the plates are held at 27° C. and 75% relative humidity under bright indirect lights. […]

[2] = tested on: Western Tarnished Plant Bug Lygus hesperus; assay: Insecticidal assay 13, western tarnished plant bug, sprayed egg-infested snow pea pods; details: L. hesperus eggs and emergent nymphs; airbrush spray on egg-infested snow pea pods; assessed after 10 days
Description: 13. Insecticidal Assay for Western Tarnished Plant Bug Lygus hesperus:
Objective: Assessment of the insecticidal activity of compounds against L. hesperus through egg contact and contact/ingestion activity on emergent nymphs.
Test Unit preparation: Female lygus are allowed to oviposit on snow pea pods, these pods are then placed in plastic Petri dishes.
Formulation and application: Compounds are dissolved in acetone and further dilutes with water containing 0.025% Tween 20. The solutions are sprayed on the Petri dishes and the egg-infested snow pea pods using an airbrush.
Holding and assessment: The Petri dishes are held for 10 days under controlled conditions at which time the emerging nymphs are assessed for insecticidal effects.

[3] = tested on: Large Milkweed Bug Oncopeltus fasciatus; assay: Insecticidal assay 6, large milkweed bug, 96-well diet plate; details: O. fasciatus second instar; 2 microliters of 4-microgram/microliter in DMSO per well on diet; assessed after 6 days at 29° C.
Description: 6. Insecticidal Assay for Large Milkweed Bug Oncopeltus fasciatus:
Objective: To assess the insecticidal activity of compounds against O. fasciatus through contact and ingestion.
Test unit preparation: A robotic system dispenses 100 microliters of freshly prepared artificial diet into each well of a 96-well microtiter plate. The plates are held overnight at 22° C. to allow proper cooling and drying prior to treatment and infestation.
(§2) Compound formulation and application: Compounds are formulated in dimethyl sulfoxide at 4-microgram/microliter. A robotic system automatically dispenses 2 microliters of each of the experimental compound solutions into individual wells of the prepared test units. There are 6 replicates per treatment. After application, plates are allowed to dry 5-6 hours in a fume hood. When dry, the plates are covered with a matching lid and held overnight in a sealed container prior to infestation.
Infestation: One day after application, each treated well is infested with 3-5 second instar milkweed bugs.
Holding and assessment: Once infested, the plates are covered with a clear plastic lid. The plates are then stacked and held in an incubator at 29° C. After 6 days, each well is examined by means of a dissecting microscope for insecticidal effect.

[4] = tested on: German Cockroach Blattella germanica; assay: Insecticidal assay 12, German cockroach, 96-well diet plate; details: B. germanica second instar; 2 microliters of 4-microgram/microliter in DMSO per well on diet; assessed after 6 and 13 days at 29° C.
Description: 12. Insecticidal Assay for German Cockroach Blattella germanica: Objective: Assessment of the insecticidal activity of compounds against B. germanica through contact and ingestion. Test unit preparation: A robotic system dispenses 100 microliters of freshly prepared artificial diet into each well of a 96-well microtiter plate. The plates are held overnight at 22° C. to allow proper cooling and drying prior to treatment and infestation. Compound formulation and application: Compounds are formulated in dimethyl sulfoxide at 4-microgram/microliter. A robotic system automatically dispenses 2 microliters of each compound solution into individual wells of the prepared test units. Each treatment is replicated 3 times. After application, plates are allowed to dry 5-6 hours in a fume hood. When dry, the plates are covered with a matching lid and held overnight in a sealed container prior to infestation. Infestation: One day after application, each treated well is infested with 3-5, second instar cockroaches. Holding and assessment: Once infested, the plates are covered with a clear plastic lid. The plates are stacked and held in an incubator at 29° C. After 6 and 13 days respectively, each well is examined by means of a dissecting microscope for insecticidal effects.

[5] = tested on: Cabbage Looper Tricoplusia ni; assay: Insecticidal assay 9, cabbage looper, cabbage leaf disc dip; details: T. ni second instar; cabbage leaf discs dipped in 400 ppm and 25 ppm solutions; assessed 5 days after infestation
Description: 9. Insecticidal Assay for Cabbage Looper Tricoplusia ni:
Objective: To assess the insecticidal activity of compounds against T. ni through contact and ingestion.
Formulation and application: Eight milligrams of technical compound is dissolved in 20 milliliters of 2:1 acetone:tap water diluent to form a 400 ppm solution. An aliquot of this solution is also used to prepare a 25 parts per million concentration. 3.5 centimeter diameter leaf discs cut from cabbage leaves are dipped into each solution until thoroughly wet. Each treatment is replicated 10 times. After air-drying, the treated discs are placed individually into one-ounce plastic cups.
Infestation: Once the leaf discs have dried, a single second instar cabbage looper is place on the cabbage disc in each cup.
Holding and assessment: Treated and infested cups or are capped and then held in a chamber at 25° C. and 50% relative humidity, 14-hours light:10-hours dark. 5 days after infestation the larvae are assessed for insecticidal effects.

[6] = tested on: Cotton Aphid Aphis gossypii; assay: Insecticidal assay 14, cotton aphid, foliar spray on squash; details: A. gossypii all life stages on squash; 50 and 5 parts per million spray solutions; assessed 3 days after treatment
Description: 14. Insecticidal Assay for Cotton Aphid Aphis gossypii:
Objective: To assess the insecticidal activity of compounds against A. gossypii through contact and ingestion.
(§3) Formulation and application: One (1) milligram of each technical synthetic organic compound was dissolved in 1 milliliters of a 90:10 acetone:ethanol solvent. This 1 milliliter of chemical solution was added to 19 milliliters of distilled water containing 0.05% Tween 20 surfactant to produce a 50 parts per million spray solution. A 5 part per million solution was then prepared from the 50 part per million stock.
Test unit preparation and infestation: One week old ‘Crookneck’ squash plants, trimmed to one cotyledon per plant, are infested with cotton aphids (all life stages). Sections of heavily infested colony squash leaves were placed on the untreated squash cotyledons 16-20 hrs prior to spraying. As the infested sections dried out, the aphids moved to the succulent plant material. Plants are examined to ensure even infestation prior to application.
(§4) Application: The plants are sprayed on both sides of all leaves with a hand-held atomizing sprayer until solutions are completely used. […]
Holding and assessment: The plants are allowed to air dry and are then held for 3 days in a controlled room at 26° C. and 40% relative humidity prior to grading. 3 days after treatment the aphids are assessed for insecticidal effects.

[7] = tested on: Green Peach Aphid Myzus persicae; assay: Insecticidal assay 15, green peach aphid, foliar spray on cabbage seedlings; details: M. persicae on cabbage seedlings; 50 and 5 parts per million spray solutions; assessed 3 days after treatment
Description: 15. Insecticidal Assay for Green Peach Aphid Myzus persicae:
Objective: To assess the insecticidal activity of compounds against M. persicae through contact and ingestion.
as §3
Test unit preparation and infestation: Cabbage seedlings, with 2 to 3 first true leaves emerged (12 days after planting) are culled to 1 plant per 3 inch pot. Treatments consisted of 4 replicates. Four days prior to application, heavily infested colony turnip leaves are shaken above the untreated plants. Shaking dislodges the aphids and they migrate to succulent plant material. Plants are examined to ensure even infestation prior to application.
as §4
Holding and assessment: The plants are allowed to air dry and are then held for 3 days in a controlled room at 26° C. and 40% relative humidity. 3 days after treatment the aphids are assessed for insecticidal effects.

[8] = tested on: Corn Earworm Helicoverpa zea; assay: Insecticidal assay 11, corn earworm, 128 well bioassay trays; details: H. zea second instar; 50 microliters of 1 milligram per milliliter stock or serial dilutions on diet per well; assessed 5 days after infestation
Description: 11. Insecticidal Assay for Corn Earworm Helicoverpa zea:
Objective: To assess the insecticidal activity of compounds against H. zea, through contact and ingestion.
(§5) Test unit preparation: 128 well bioassay trays are prepared by injecting each well with approximately 1 milliliter of prepared lepidopteran diet. Trays are allowed to dry prior to use.
(§6) Compound formulation and application: A 1 milligram per milliliter, stock solution is prepared for each compound by adding 2 milliliters of acetone/water diluent (9:1) to a vial containing 2 milligrams of technical compound. From this stock solution, additional doses may be produced through serial dilution. Once the appropriate concentrations have been prepared, 50 microliters of each solution is applied to the surface of the diet in each of 8 wells. Upon completing application, the trays are allowed to dry.
Infestation: Once dry, each well is infested with a single second instar corn earworm. Infested wells are sealed with self sticking, ventilated plastic covers.
(§7) Holding and assessment: After infestation and sealing, the trays are placed in a growth chamber at 25 C and 40% relative humidity. 5 days after infestation the larvae are assessed for insecticidal effects.

[9] = tested on: Tobacco Budworm Heliothis virescens; assay: Insecticidal assay 8, tobacco budworm, diet cups; details: H. virescens second instar; 250 microliters of 400 ppm and 25 ppm solutions on diet in cups; assessed 5 days after infestation
Description: 8. Insecticidal Assay for Tobacco Budworm Heliothis virescens:
Objective: To assess the insecticidal activity of compounds against H. virescens through contact and ingestion.
(§8) Test unit preparation: 8 milliliters of lepidopteran diet is dispensed into one ounce clear plastic portion cups. The diet is allowed to cool before storage or use.
(§9) Formulation and application: Eight milligrams of technical compound is dissolved in 20 milliliters of 2:1 acetone:tap water diluent to form a 400 ppm solution. An aliquot of this solution is also used to prepare a 25 parts per million concentration. 250 microliters of each solution is then pipetted onto the surface the diet in each cup. Each treatment is replicated 10 times.
Infestation: Once the treated cups have dried, a single second-instar tobacco budworm is placed on the treated diet in each cup.
(§10) Holding and assessment: Treated and infested diet cups or are capped and then held in a chamber at 25° C. and 50% relative humidity. 14-hours light:10-hours dark. 5 days after infestation the larvae are assessed for insecticidal effects.

[10] = tested on: Yellow Fever Mosquito Aedes aegypti; assay: Insecticidal assay 4, yellow fever mosquito larvae, 96-well plate; details: A. aegypti first instar larvae in water; 1.5 microliters of 4 micrograms per microliter in DMSO per well; assessed after 72 hours at 22° C.
Excerpt: 4. Insecticidal Assay for Yellow Fever Mosquito Aedes aegypti:
Objective: To evaluate the insecticidal activity of compounds against A. aegypti larvae through contact and ingestion.
as §1
Formulation and application: Compounds are formulated in dimethyl sulfoxide at 4-micrograms per microliter. A robotic system dispenses 1.5 microliters of each formulated experimental solution into each well of an empty, 96-well microtiter plate. Each treatment is replicated 3 times.
Infesting: Subsequent to application, recently hatched, mosquito larvae are suspended in water containing 0.4% mosquito diet (1:3 mix of brewers yeast to liver powder). A robotic system dispenses aliquots of this aqueous solution containing 5-8 first instar mosquitoes into each well of the treated plates.
Holding and assessment: After infestation, the plates are covered with a matching clear plastic lid. Infested plates are stacked and held in an incubator at 22° C. for 72 hours. At assessment, cells are examined by means of a dissecting microscope for insecticidal effects.

[11] = tested on: Beet Armyworm Spodoptera exigua; assay: Insecticidal assay 7, beet armyworm, diet cups; details: S. exigua second instar; 250 microliters of 400 ppm and 25 ppm solutions on diet in cups; assessed 5 days after infestation
Description: 7. Insecticidal Assay for Beet Armyworm Spodoptera exigua:
Objective: To assess the insecticidal activity of compounds against S. exigua, through contact and ingestion.
as §8, §9
Infestation: Once the treated cups have dried, a single second-instar beet armyworm is placed on the treated diet in each cup.
as §10

[12] = tested on: Beet Armyworm Spodoptera exigua; assay: Insecticidal assay 10, beet armyworm, 128 well bioassay trays; details: S. exigua second instar; 50 microliters of 1 milligram per milliliter stock or serial dilutions on diet per well; assessed 5 days after infestation
Description: 10. Insecticidal Assay for Beet Armyworm Spodoptera exigua:
Objective: To assess the insecticidal activity of compounds against S. exigua through contact and ingestion.
as §5, §6
Infestation: Once dry, each well is infested with a single second instar beet armyworm. The infested wells are sealed with self sticking, ventilated plastic covers.
as §7

[13] = tested on: Tobacco Budworm Heliothis virescens; assay: Insecticidal assay 2, tobacco budworm, 96-well diet plate; details: H. virescens eggs and early instars; 2 microliters of 4 micrograms per microliter in DMSO per well on diet; 200 ppm piperonyl butoxide co-applied; assessed after 6 days at 29° C.
Description: 2. Insecticidal Assay for Tobacco Budworm Heliothis virescens:
Objective: To evaluate the insecticidal activity of compounds against H. virescens eggs and early instars through contact and ingestion.
Test unit preparation: A robotic system dispenses 150 microliters of freshly prepared artificial lepidopteran diet into each well of a 96-well microtiter plate. The plates are held overnight at 22° C. to allow proper cooling and drying prior to treatment and infestation.
as §2, with “4-micrograms per microliter.” for “4-microgram/microliter.”, “the” for “the experimental”, “Each treatment is replicated” for “There are”, “times. As part of the application process, a 200 ppm concentration of the commonly used synergist, piperonyl butoxide is co-applied to each well to increase the sensitivity of this assay.” for “replicates per treatment.”
Infestation: One day after application, each treated well is infested with 3-5, tobacco budworm eggs.
Holding and assessment: Once infested, the plates are covered with a clear plastic lid. The plates are stacked and held in an incubator at 29° C. […]

Measured: insecticidal activity

N#Cc1c(NNc2c(Cl)cc(C(F)(F)F)cc2Cl)nc(C(F)(F)F)nc1C(F)(F)F [Compound 11, 4-[N′-(2,6-dichloro-4-trifluoromethyl-phenyl)-hydrazino]-2,6-bis-trifluoromethyl-pyrimidine-5-carbonitrile]
significant insecticidal activity: all assays above

CN(Nc1nc(C(F)(F)F)nc(C(F)(F)F)c1C#N)c1ccc(C#N)cn1 [Compound 30]
significant insecticidal activity: [10]
